Experimental data from the supplement of paper PMC10307832.

Columns and labels:
Experiment in all cases: relative viability (nuclei count vs DMSO), 5 days (fraction); higher = more cells survive
[1] = test system: A-427
In short: (§1)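 Medians of duplicate plates are given as relative viability. That measure is the nuclei count in treated wells divided by the count in vehicle wells. Counts were taken on 4× images of lung cancer cell lines in 1536-well plates, 5 days after pin-tool dosing the day after seeding with one drug alone or a fixed anchor-drug dose plus five library-drug doses (not always all listed) in √10 steps.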

[2] = test system: ABC-1
In short: as §1

[3] = test system: EMC-BAC-2
In short: as §1

[4] = test system: HARA
In short: as §1

[5] = test system: HOP-62
In short: as §1

[6] = test system: LK-2
In short: as §1

[7] = test system: LXF-289
In short: as §1

[8] = test system: NCI-H1792
In short: as §1

[9] = test system: NCI-H1944
In short: as §1

[10] = test system: NCI-H1993
In short: as §1

[11] = test system: NCI-H2170
In short: as §1

[12] = test system: NCI-H3122
In short: as §1

[13] = test system: NCI-H322M
In short: as §1

[14] = test system: NCI-H522
In short: as §1

[15] = test system: NCI-H596
In short: as §1

[16] = test system: NCI-H727
In short: as §1

[17] = test system: PC-3 [JPC-3]
In short: as §1

[18] = test system: SW 900
In short: as §1

## CC(=O)O[C@@]12CO[C@@H]1C[C@H](O)[C@@]1(C)C(=O)[C@H](O)C3=C(C)[C@@H](OC(=O)[C@H](O)[C@@H](NC(=O)OC(C)(C)C)c4ccccc4)C[C@@](O)([C@@H](OC(=O)c4ccccc4)[C@H]21)C3(C)C [Docetaxel] + NC(=O)Nc1cc(-c2cccc(F)c2)sc1C(=O)N[C@H]1CCCNC1 [AZD7762] (partner 0.2 µM)
[1]; first compound 0.0002 µM
  relative viability: 0.729
[1]; first compound 0.000632 µM
  relative viability: 0.768
[1]; first compound 0.002 µM
  relative viability: 0.461
[1]; first compound 0.006325 µM
  relative viability: 0.266
[1]; first compound 0.02 µM
  relative viability: 0.222
[2]; first compound 0.0002 µM
  relative viability: 0.826
[2]; first compound 0.000632 µM
  relative viability: 0.795
[2]; first compound 0.002 µM
  relative viability: 0.619
[2]; first compound 0.006325 µM
  relative viability: 0.297
[2]; first compound 0.02 µM
  relative viability: 0.222
[3]; first compound 0.0002 µM
  relative viability: 1.03
[3]; first compound 0.000632 µM
  relative viability: 0.885
[3]; first compound 0.002 µM
  relative viability: 0.467
[3]; first compound 0.006325 µM
  relative viability: 0.334
[3]; first compound 0.02 µM
  relative viability: 0.369
[4]; first compound 0.0002 µM
  relative viability: 0.273
[4]; first compound 0.000632 µM
  relative viability: 0.201
[4]; first compound 0.002 µM
  relative viability: 0.105
[4]; first compound 0.006325 µM
  relative viability: 0.193
[4]; first compound 0.02 µM
  relative viability: 0.076
[5]; first compound 0.0002 µM
  relative viability: 0.6
[5]; first compound 0.000632 µM
  relative viability: 0.395
[5]; first compound 0.02 µM
  relative viability: 0.0943
[6]; first compound 0.0002 µM
  relative viability: 0.337
[6]; first compound 0.000632 µM
  relative viability: 0.277
[6]; first compound 0.002 µM
  relative viability: 0.113
[6]; first compound 0.006325 µM
  relative viability: 0.112
[6]; first compound 0.02 µM
  relative viability: 0.0712
[7]; first compound 0.0002 µM
  relative viability: 1.1
[7]; first compound 0.000632 µM
  relative viability: 0.664
[7]; first compound 0.002 µM
  relative viability: 0.346
[7]; first compound 0.006325 µM
  relative viability: 0.129
[7]; first compound 0.02 µM
  relative viability: 0.0873
[8]; first compound 0.0002 µM
  relative viability: 0.666
[8]; first compound 0.000632 µM
  relative viability: 0.465
[8]; first compound 0.002 µM
  relative viability: 0.24
[8]; first compound 0.006325 µM
  relative viability: 0.0705
[8]; first compound 0.02 µM
  relative viability: 0.0512
[9]; first compound 0.0002 µM
  relative viability: 0.667
[9]; first compound 0.000632 µM
  relative viability: 0.476
[9]; first compound 0.002 µM
  relative viability: 0.339
[9]; first compound 0.006325 µM
  relative viability: 0.25
[9]; first compound 0.02 µM
  relative viability: 0.102
[10]; first compound 0.0002 µM
  relative viability: 0.873
[10]; first compound 0.000632 µM
  relative viability: 0.739
[10]; first compound 0.002 µM
  relative viability: 0.603
[10]; first compound 0.006325 µM
  relative viability: 0.477
[10]; first compound 0.02 µM
  relative viability: 0.303
[11]; first compound 0.0002 µM
  relative viability: 0.895
[11]; first compound 0.000632 µM
  relative viability: 0.722
[11]; first compound 0.002 µM
  relative viability: 0.581
[11]; first compound 0.02 µM
  relative viability: 0.131
[12]; first compound 0.0002 µM
  relative viability: 0.939
[12]; first compound 0.000632 µM
  relative viability: 0.818
[12]; first compound 0.002 µM
  relative viability: 0.843
[12]; first compound 0.006325 µM
  relative viability: 0.171
[12]; first compound 0.02 µM
  relative viability: 0.121
[13]; first compound 0.0002 µM
  relative viability: 0.611
[13]; first compound 0.000632 µM
  relative viability: 0.459
[13]; first compound 0.002 µM
  relative viability: 0.451
[13]; first compound 0.006325 µM
  relative viability: 0.509
[13]; first compound 0.02 µM
  relative viability: 0.39
[14]; first compound 0.0002 µM
  relative viability: 0.927
[14]; first compound 0.000632 µM
  relative viability: 1.08
[14]; first compound 0.002 µM
  relative viability: 0.622
[14]; first compound 0.006325 µM
  relative viability: 0.484
[14]; first compound 0.02 µM
  relative viability: 0.373
[15]; first compound 0.0002 µM
  relative viability: 1.07
[15]; first compound 0.000632 µM
  relative viability: 0.934
[15]; first compound 0.002 µM
  relative viability: 1
[15]; first compound 0.006325 µM
  relative viability: 0.581
[15]; first compound 0.02 µM
  relative viability: 0.397
[16]; first compound 0.0002 µM
  relative viability: 0.482
[16]; first compound 0.000632 µM
  relative viability: 0.537
[16]; first compound 0.002 µM
  relative viability: 0.503
[16]; first compound 0.006325 µM
  relative viability: 0.452
[16]; first compound 0.02 µM
  relative viability: 0.381
[17]; first compound 0.0002 µM
  relative viability: 0.761
[17]; first compound 0.000632 µM
  relative viability: 0.69
[17]; first compound 0.002 µM
  relative viability: 0.441
[17]; first compound 0.006325 µM
  relative viability: 0.267
[17]; first compound 0.02 µM
  relative viability: 0.169
[18]; first compound 0.0002 µM
  relative viability: 0.452
[18]; first compound 0.000632 µM
  relative viability: 0.234
[18]; first compound 0.002 µM
  relative viability: 0.287
[18]; first compound 0.006325 µM
  relative viability: 0.235
[18]; first compound 0.02 µM
  relative viability: 0.161
